ChEMBL document CHEMBL1201862, “PubChem BioAssay data set” (2004)
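These data come from cells grown in 96-well plates and exposed to compound for 48 hours at five concentrations. Here, GI50 denotes the concentration required for 50% inhibition of growth.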 Calls of active or inactive are those of the source. No stated cut-off is given here; in the data, active = GI50 up to about 1.1 µM and inactive = higher.

Legend:
Assay in all cases: inhibition of tumour cell growth, NCI panel, 48 h
[1] = tested on: SK-OV-3
[2] = tested on: MCF7
[3] = tested on: UACC-257
[4] = tested on: HCC 2998
[5] = tested on: PC-3
[6] = tested on: A498
[7] = tested on: CAKI-1
[8] = tested on: MDA-MB-231
[9] = tested on: CCRF-CEM
[10] = tested on: ACHN
[11] = tested on: UACC-62
[12] = tested on: SK-MEL-5
[13] = tested on: RXF 393
[14] = tested on: MDA-MB-435
[15] = tested on: SR
[16] = tested on: T47D
[17] = tested on: HOP-92
[18] = tested on: Hs-578T
[19] = tested on: EKVX
[20] = tested on: MDA-N

Measured: GI50

Nc1n[n+]2cc(-c3ccccc3)n(CC(=O)c3ccccc3)c2s1
inactive: [1] > 100 µM | [2] 10.8 µM | [3] 25.5 µM | [4] 15 µM | [5] 39 µM | [6] > 100 µM | [7] > 100 µM | [8] 29.5 µM | [9] 15.8 µM | [10] 65.2 µM | [11] 30.5 µM | [12] 23.1 µM | [13] 20.4 µM | [14] 36.9 µM | [15] 18.4 µM | [16] 22.6 µM | [17] 14.1 µM | [18] 17 µM | [19] 39.6 µM | [20] 34.4 µM

COC(=O)/C=C/c1ccc2c(c1)CCC2
inactive: [1] > 100 µM | [2] 52.5 µM | [3] 54 µM | [4] > 100 µM | [5] 30.4 µM | [6] 27.2 µM | [7] 17.4 µM | [8] 63.2 µM | [9] 46.9 µM | [10] 23.7 µM | [12] 30.2 µM | [13] 21 µM | [14] 63.1 µM | [15] 36.7 µM | [16] 11.3 µM | [17] 5.28 µM | [18] > 100 µM | [19] 82.6 µM | [20] > 100 µM

Cc1ccc(Nc2ncnc3sc(SCc4ccccc4)nc23)cc1
inactive: [1] > 100 µM | [2] > 100 µM | [3] > 100 µM | [4] 33.7 µM | [5] 90.6 µM | [6] 8.81 µM | [7] 26 µM | [8] > 100 µM | [9] > 100 µM | [10] 32 µM | [12] 82.6 µM | [13] 84.9 µM | [14] > 100 µM | [15] > 100 µM | [16] 84.7 µM | [17] 31.3 µM | [18] > 100 µM | [19] > 100 µM | [20] > 100 µM

Cc1ccccc1OC(C)C(=O)NN1C(=O)CSC1c1ccc(Cl)cc1 (stereo not drawn)
inactive: [1] 47.1 µM | [2] 32.1 µM | [3] 55 µM | [4] 34.9 µM | [5] 35.7 µM | [6] 24 µM | [7] 56.6 µM | [8] 26.2 µM | [10] 33 µM | [11] 58.9 µM | [12] 49.9 µM | [13] 38.5 µM | [14] 57.9 µM | [15] 5.47 µM | [16] 51.1 µM | [17] 31 µM | [18] 41.8 µM | [19] 37.9 µM | [20] 60.3 µM

CCOP(=O)(C/C=C/Cn1nc(Br)c(=O)[nH]c1=O)OCC
inactive: [2] > 100 µM | [3] > 100 µM | [4] > 100 µM | [5] > 100 µM | [6] > 100 µM | [7] > 100 µM | [8] > 100 µM | [9] > 100 µM | [10] > 100 µM | [11] > 100 µM | [12] > 100 µM | [13] > 100 µM | [14] > 100 µM | [15] > 100 µM | [16] > 100 µM | [17] > 100 µM | [18] > 100 µM | [19] > 100 µM | [20] > 100 µM

COc1ccc2c(c1)CCc1c-2[nH]c2ccc(OC)cc12
inactive: [1] > 100 µM | [2] > 100 µM | [3] > 100 µM | [4] > 100 µM | [5] > 100 µM | [6] > 100 µM | [7] > 100 µM | [8] > 100 µM | [9] 14.4 µM | [10] > 100 µM | [11] > 100 µM | [12] > 100 µM | [14] > 100 µM | [15] > 100 µM | [16] 20.8 µM | [17] > 100 µM | [18] > 100 µM | [19] > 100 µM | [20] > 100 µM

O=C(NN=C(c1ccccc1)c1ccccc1)/C(O)=C/C(=O)c1ccc(Cl)cc1
inactive: [1] 73.3 µM | [2] 28 µM | [3] 37.3 µM | [4] 39.5 µM | [5] 27.1 µM | [6] 16.5 µM | [7] > 100 µM | [8] 11.9 µM | [9] 24.4 µM | [10] 37.4 µM | [11] 39.1 µM | [12] 29.1 µM | [13] 35.2 µM | [14] 69.3 µM | [15] 39.2 µM | [16] 30.2 µM | [18] 27.2 µM | [19] 30.7 µM | [20] 40.5 µM

CC1(C)C2CC3C4CC5(Nc6ccccc6C5N41)[C@]3(C)CC2=O (stereo partly drawn)
inactive: [2] > 50 µM | [3] > 50 µM | [4] > 50 µM | [5] > 50 µM | [6] > 50 µM | [7] > 50 µM | [8] > 50 µM | [9] > 50 µM | [10] > 50 µM | [11] > 50 µM | [12] > 50 µM | [13] > 50 µM | [14] > 50 µM | [15] > 50 µM | [16] 9.82 µM | [17] 12.5 µM | [18] > 50 µM | [19] > 50 µM | [20] > 50 µM
